Calls of active or inactive are those of the source. The rule behind the calls is not given here.
Assays:
[1] = molecular target: C-X-C chemokine receptor type 4 (Homo sapiens) (UniProt P61073); test: Inhibition of biotinylated TN14003 binding to CXCR4 in human MDA-MB-231 cells preincubated for 10 mins followed by biotinylated-TN14003 addition measured after 30 mins by streptavidin-rhodamine staining based fluorescence microscopic analysis; format: cell-based
[2] = molecular target: C-X-C chemokine receptor type 4 (Homo sapiens) (UniProt P61073); test: Inhibition of CXCR4-mediated chemotaxis in human MDA-MB-231 cells assessed as reduction in CXCL12alpha-induced cell invasion at 100 nM after 22 hrs by hematoxylin/eosin dye-based matrigel assay relative to control
Mus musculus = test: Antiinflammatory activity in C57Bl/6J mouse assessed as inhibition of carrageenan-induced paw edema at 10 mg/kg, ip treated for 2 days measured 2 hrs post last dose by caliper method relative to control; format: functional

Chain of C-X-C chemokine receptor type 4 (Homo sapiens) (P61073 whole entry): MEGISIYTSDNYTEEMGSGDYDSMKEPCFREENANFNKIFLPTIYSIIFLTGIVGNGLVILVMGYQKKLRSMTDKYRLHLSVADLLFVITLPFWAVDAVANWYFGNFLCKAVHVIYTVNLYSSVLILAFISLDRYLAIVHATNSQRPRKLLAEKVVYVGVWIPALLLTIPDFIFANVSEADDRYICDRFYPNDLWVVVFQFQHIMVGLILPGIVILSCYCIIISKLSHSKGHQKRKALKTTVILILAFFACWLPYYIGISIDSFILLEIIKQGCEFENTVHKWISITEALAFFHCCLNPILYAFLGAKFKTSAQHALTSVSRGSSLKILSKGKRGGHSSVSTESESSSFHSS

Row | Structure (SMILES) | EC [1] [nM] | inhibition [2] [%] | inhibition in vivo at 10 mg/kg (Mus musculus) [%] | inhibition (Mus musculus)
1 | Fc1ccc(NCc2ccc(CNc3ccc(F)cc3)nc2)cc1 | 1000 |  |  | 
2 | c1ccc(NCc2ccc(CNc3ccccc3)nc2)cc1 | 1000 |  |  | 
3 | O=[N+]([O-])c1ccc(CNc2ccc(NCc3ccc([N+](=O)[O-])cc3)nc2)cc1 | 1000 |  |  | 
4 | Fc1cccc(NCc2ccc(CNc3cccc(F)c3)nc2)c1 | 100 | 82.4 | 12 | 
5 | c1ccc(NCc2ccc(CNc3ccccn3)cc2)nc1 |  |  | 40 | 
6 | O=[N+]([O-])c1ccccc1NCc1ccc(CNc2ccccc2[N+](=O)[O-])nc1 | 1000 |  |  | 
7 | COc1ccccc1NCc1ccc(CNc2ccccc2OC)nc1 |  | 84.1 | 11 | 
8 | Cc1ccc(CNc2ccc(NCc3ccc(C)cc3)nc2)cc1 | 10 | 35.7 |  | 
9 | O=[N+]([O-])c1cccc(CNc2ccc(NCc3cccc([N+](=O)[O-])c3)nc2)c1 | 1000 |  |  | 
10 | O=[N+]([O-])c1ccccc1CNc1ccc(NCc2ccccc2[N+](=O)[O-])nc1 | 1000 |  |  | 
11 | Cc1ccccc1NCc1ccc(CNc2ccccc2C)nc1 | 1000 |  |  | 
12 | COc1cccc(CNc2ccc(NCc3cccc(OC)c3)nc2)c1 | > 1000 |  |  | 
13 | c1ccc(CNc2ccc(NCc3ccccc3)nc2)cc1 | 1000 |  |  | 
14 | COc1ccccc1NCc1cccc(CNc2ccccc2OC)n1 |  | < 1 |  | 
15 | Fc1ccc(CNc2ccc(NCc3ccc(F)cc3)nc2)cc1 | 1000 |  |  | 
16 | COc1cccc(NCc2ccc(CNc3cccc(OC)c3)nc2)c1 | 100 | 76.8 |  | inactive
17 | Cc1ccc(NCc2ccc(CNc3ccc(C)cc3)nc2)cc1 | 100 | 85.1 |  | inactive

Row | Structure (SMILES) | EC [1] [nM] | inhibition [2] [%] | inhibition in vivo at 10 mg/kg (Mus musculus) [%] | inhibition (Mus musculus)
18 | Clc1ccc(CNc2ccc(NCc3ccc(Cl)cc3)nc2)cc1 | 10 | 83.7 | 8 | 
19 | O=[N+]([O-])c1ccc(NCc2ccc(CNc3ccc([N+](=O)[O-])cc3)nc2)cc1 | 1 | 80.3 | 13 | 
20 | Clc1ccc(NCc2ccc(CNc3ccc(Cl)cc3)nc2)cc1 | 1000 |  |  | 
21 | O=[N+]([O-])c1cccc(NCc2ccc(CNc3cccc([N+](=O)[O-])c3)nc2)c1 | 100 | 73.4 |  | 
22 | Cc1cccc(NCc2ccc(CNc3cccc(C)c3)nc2)c1 |  | 99 |  | inactive
23 | COc1ccc(NCc2ccc(CNc3ccc(OC)cc3)nc2)cc1 | 1000 |  |  | 
24 | Fc1cccc(CNc2ccc(NCc3cccc(F)c3)nc2)c1 | 100 | 4.8 |  | 
25 | COc1ccccc1CNc1ccc(NCc2ccccc2OC)nc1 | > 1000 |  |  | 
26 | Cc1ccccc1CNc1ccc(NCc2ccccc2C)nc1 | 100 | 82.4 | 3 | 
27 | c1cc(CN2CCCNCCNCCCNCC2)ccc1CN1CCCNCCNCCCNCC1 |  | 62 |  | inactive
28 | Fc1ccccc1NCc1ccc(CNc2ccccc2F)nc1 | 1000 |  |  | 
29 | Cc1cccc(CNc2ccc(NCc3cccc(C)c3)nc2)c1 | 100 | 50.4 |  | 
30 | Brc1ccc(NCc2ccc(CNc3ccc(Br)cc3)nc2)cc1 | 1000 |  |  | 
31 | CCc1ccc(CNc2ccc(NCc3ccc(CC)cc3)nc2)cc1 | > 1000 |  |  | 
32 | Fc1ccccc1CNc1ccc(NCc2ccccc2F)nc1 | 100 | 53.3 |  | 
33 | Brc1ccc(CNc2ccc(NCc3ccc(Br)cc3)nc2)cc1 | 1000 |  |  | 
34 | CCc1ccc(NCc2ccc(CNc3ccc(CC)cc3)nc2)cc1 | 1000 |  |  | 

Reference: ChEMBL document CHEMBL4371032, “Synthesis and evaluation of 2,5-diamino and 2,5-dianilinomethyl pyridine analogues as potential CXCR4 antagonists” (2019)
